Assays:
MHC-II DRB1*15:01 [1] = molecular target: T1, MHC-II DRB1*15:01 (Homo sapiens, UniProt P01903+P01911); test: Cell-free REVEAL class II stability assay; conditions: half-life of peptide-MHC-II complex (h, capped at 120) x Binding Score / 100, conformational ELISA
T1 construct: purchased ProImmune
Protocol: (§1) We measured the half-life of each peptide-MHC-II complex using REVEAL peptide-MHC affinity assays developed by ProImmune Ltd. (Oxford, UK). On-rates of peptides were measured over a 96-hr period at 10°C. A unique positive control peptide was used for each MHC-II allele. Samples of assembling peptide-MHC complexes were taken at defined time points and snap-frozen in liquid nitrogen prior to analysis. Assembly of peptide-MHC complexes was detected using a conformational ELISA involving an anti-HLA antibody. On-rates were calculated by fitting data to a one-phase association curve: [drawing 1] To determine the off-rates of the peptides, samples of dissociating complexes were taken at defined time points and frozen in liquid nitrogen prior to analysis. Percent denaturation of peptide-MHC complexes was also detected using a conformational ELISA. Off-rates were calculated by fitting data to a one-phase dissociation curve: [drawing 2] On- and off-rate half-life values (t1/2) were calculated from the rate constant (k) using the following equation: [drawing 3] To obtain a normalized stability score, the half-life values were multiplied by the Binding Score (see above) and divided by 100.

MHC-II DRB1*15:03 [2] = molecular target: T2, MHC-II DRB1*15:03 (Homo sapiens, UniProt P01903+P01911, Y59H); test: Cell-free REVEAL class II stability assay; conditions: half-life of peptide-MHC-II complex (h, capped at 120) x Binding Score / 100, conformational ELISA
T2 construct: purchased ProImmune
Protocol: as §1

MHC-II DRB1*03:01 [3] = molecular target: T3, MHC-II DRB1*03:01 (Homo sapiens, UniProt P01903+P01911, A100K/A102G/A103R/A169T/F55Y/I96L/K41T/L162R/M171V/P40S/Q125H/Q178H/Q39Y/R42S/S66N/T106N/T262R/W38E/Y61H); test: Cell-free REVEAL class II stability assay; conditions: half-life of peptide-MHC-II complex (h, capped at 120) x Binding Score / 100, conformational ELISA
Protocol: as §1

MHC-II DRB1*11:01 [4] = molecular target: T4, MHC-II DRB1*11:01 (Homo sapiens, UniProt P01903+P01911, A100R/A169T/A87E/I96F/K41T/L162R/M171V/P40S/Q125H/Q178H/Q39Y/Q99D/R42S/S66Y/T262R/V115G/W38E); test: Cell-free REVEAL class II stability assay; conditions: half-life of peptide-MHC-II complex (h, capped at 120) x Binding Score / 100, conformational ELISA
Protocol: as §1

MHC-II DRB1*07:01 [5] = molecular target: T5, MHC-II DRB1*07:01 (Homo sapiens, UniProt P01903+P01911, A100R/A102G/A103Q/D57E/D86V/E43K/F76Y/K127E/L162R/M171V/P40G/Q125H/Q99D/R33Q/R42Y/R54Q/S133A/S66F/T210M/V115G/Y107V/Y59L/Y89S); test: Cell-free REVEAL class II stability assay; conditions: half-life of peptide-MHC-II complex (h, capped at 120) x Binding Score / 100, conformational ELISA
Protocol: as §1

MHC-II DRB1*04:01 [6] = molecular target: T6, MHC-II DRB1*04:01 (Homo sapiens, UniProt P01903+P01911, A100K/A169T/F76Y/I96L/K127E/L162R/M171V/N62H/P40V/Q125Y/R42H/S133A/S149N/S66Y/V115G/V209L/W38E); test: Cell-free REVEAL class II stability assay; conditions: half-life of peptide-MHC-II complex (h, capped at 120) x Binding Score / 100, conformational ELISA
Protocol: as §1

MHC-II DRB1*15:01 [7] = molecular target: T1, MHC-II DRB1*15:01; test: Cell-free REVEAL class II binding assay; conditions: signal of test peptide as percentage of allele-specific positive control peptide, fluorescence, conformation-specific monoclonal antibody
Description: (§2) We used a proprietary high throughput, REVEAL binding assay (ProImmune, www.proimmune.com) to estimate the binding of individual test peptides to the following MHC-II variants: DRB1*03:01, DRB1*04:01, DRB1*07:01, DRB1*11:01, DRB1*15:01 and DRB1*15:03 [28]. Detection of a peptide binding to each MHC-II protein is based on the presence or absence of the native conformation of the MHC-peptide complex. The peptide-MHC-II complex is detected by an increase in a fluorescence signal due to the binding of a specific monoclonal antibody. Each test-peptide is given a score relative to a positive control peptide, which is a known T-cell epitope for that MHC-II molecule. The score is reported quantitatively as a percentage of the signal generated by the test peptide compared with the positive control peptide. Assay performance is evaluated by including in each set of measurements an intermediate control peptide which is known to bind the MHC-II molecule but with a lower affinity than the positive control peptide. Note that the positive control peptide used to determine the binding score is different from the positive control peptides depicted in the figures, which are known T-cell epitopes identified in the FVIII molecule.

MHC-II DRB1*15:03 [8] = molecular target: T2, MHC-II DRB1*15:03; test: Cell-free REVEAL class II binding assay; conditions: signal of test peptide as percentage of allele-specific positive control peptide, fluorescence, conformation-specific monoclonal antibody
Description: as §2

MHC-II DRB1*03:01 [9] = molecular target: T3, MHC-II DRB1*03:01; test: Cell-free REVEAL class II binding assay; conditions: signal of test peptide as percentage of allele-specific positive control peptide, fluorescence, conformation-specific monoclonal antibody
Description: as §2

MHC-II DRB1*11:01 [10] = molecular target: T4, MHC-II DRB1*11:01; test: Cell-free REVEAL class II binding assay; conditions: signal of test peptide as percentage of allele-specific positive control peptide, fluorescence, conformation-specific monoclonal antibody
Description: as §2

MHC-II DRB1*07:01 [11] = molecular target: T5, MHC-II DRB1*07:01; test: Cell-free REVEAL class II binding assay; conditions: signal of test peptide as percentage of allele-specific positive control peptide, fluorescence, conformation-specific monoclonal antibody
Description: as §2

MHC-II DRB1*04:01 [12] = molecular target: T6, MHC-II DRB1*04:01; test: Cell-free REVEAL class II binding assay; conditions: signal of test peptide as percentage of allele-specific positive control peptide, fluorescence, conformation-specific monoclonal antibody
Description: as §2

T4 sequence (P01903 26-254 limits assumed, other chains not shown): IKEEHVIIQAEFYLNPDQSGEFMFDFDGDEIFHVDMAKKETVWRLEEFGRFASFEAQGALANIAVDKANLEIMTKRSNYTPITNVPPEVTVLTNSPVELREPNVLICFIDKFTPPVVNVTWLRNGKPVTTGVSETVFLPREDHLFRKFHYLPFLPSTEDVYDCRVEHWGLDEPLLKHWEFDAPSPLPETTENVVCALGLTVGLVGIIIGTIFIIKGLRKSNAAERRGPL
T2 sequence (P01903 26-254, other chains not shown): as the sequence (P01903 26-254 limits assumed, other chains not shown) above
T3 sequence (P01903 26-254 limits assumed, other chains not shown): as above

Sequence	Stability Index (MHC-II DRB1*15:01 [1])	Stability Index (MHC-II DRB1*15:03 [2])	Stability Index (MHC-II DRB1*03:01 [3])	Stability Index (MHC-II DRB1*11:01 [4])	Stability Index (MHC-II DRB1*07:01 [5])	Stability Index (MHC-II DRB1*04:01 [6])	Binding Score (MHC-II DRB1*15:01 [7]) [%]	Binding Score (MHC-II DRB1*15:03 [8]) [%]	Binding Score (MHC-II DRB1*03:01 [9]) [%]	Binding Score (MHC-II DRB1*11:01 [10]) [%]	Binding Score (MHC-II DRB1*07:01 [11]) [%]	Binding Score (MHC-II DRB1*04:01 [12]) [%]
KTDPWFAHRTPMPKI [synthetic wild type FVIII 15 mer peptide, region of ns-SNP R776G]	0.1	0.0	0.0	0.1	1.2	0.5	0.1	0.2	0.0	0.5	4.0	8.2
LFLLSTRQNVEGSYD [synthetic wild type FVIII 15 mer peptide, region of ns-SNP D1241E]	0.1	0.0	17.5	23.6	0.3	2.8	1.0	0.2	30.5	92.0	0.3	17.9
LQVDFQKTMKVTGVT [synthetic wild type FVIII 15 mer peptide, region of ns-SNP M2238V]	0.3	0.0	13.5	62.0	0.1	0.9	4.4	1.5	30.7	235.0	0.1	11.6
LSTRQNVEGSYDGAY [synthetic wild type FVIII 15 mer peptide, region of ns-SNP D1241E]	0.0	0.0	0.0	0.0	0.0	3.2	0.0	0.0	0.0	0.2	0.0	15.2
MKVTGVTTQGVKSLL [synthetic wild type FVIII 15 mer peptide, region of ns-SNP M2238V]	0.8	0.0	0.0	0.0	0.0	0.8	1.4	0.0	0.0	0.1	0.0	7.8
NNPKEWLQVDFQKTM [synthetic wild type FVIII 15 mer peptide, region of ns-SNP M2238V]	0.2	0.1	0.0	0.1	0.1	0.1	0.1	0.1	12.6	3.5	0.6	1.7
PENDIEKTDPWFAHR [synthetic wild type FVIII 15 mer peptide, region of ns-SNP R776G]	0.1	0.0	0.0	0.1	0.0	0.1	0.1	0.3	0.0	2.9	0.0	0.7
PIIARYIRLHPTHYS [synthetic wild type FVIII 15 mer peptide]	1100.9	13.3	0.0	9.0	0.0	6.9	917.4	11.1	0.3	118.8	0.0	25.4
PLLTRYLRIHPQSWV [synthetic wild type FVIII 15 mer peptide]	857.7	12.8	0.0	8.8	2.0	1.4	714.7	10.7	0.0	62.8	1.7	12.1

Source: paper PMC3656107, “Polymorphisms in the F8 Gene and MHC-II Variants as Risk Factors for the Development of Inhibitory Anti-Factor VIII Antibodies during the Treatment of Hemophilia A: A Computational Assessment” (PLoS Computational Biology, 2013)
